The text below walks through data of patent publication US20070264679A1, “Method for analyzing the activity of lipoxygenase using a water-soluble substrate” (Chungnam National University Industry Collaboration …, priority 2006, published 2007).

The target in one assay is T1, Porcine leukocyte LOX (Sus scrofa, UniProt P16469).
T1 construct: purchased Cayman Chemical Co. (Ann Arbor, Mich., USA)
T1 sequence (P16469 1-663): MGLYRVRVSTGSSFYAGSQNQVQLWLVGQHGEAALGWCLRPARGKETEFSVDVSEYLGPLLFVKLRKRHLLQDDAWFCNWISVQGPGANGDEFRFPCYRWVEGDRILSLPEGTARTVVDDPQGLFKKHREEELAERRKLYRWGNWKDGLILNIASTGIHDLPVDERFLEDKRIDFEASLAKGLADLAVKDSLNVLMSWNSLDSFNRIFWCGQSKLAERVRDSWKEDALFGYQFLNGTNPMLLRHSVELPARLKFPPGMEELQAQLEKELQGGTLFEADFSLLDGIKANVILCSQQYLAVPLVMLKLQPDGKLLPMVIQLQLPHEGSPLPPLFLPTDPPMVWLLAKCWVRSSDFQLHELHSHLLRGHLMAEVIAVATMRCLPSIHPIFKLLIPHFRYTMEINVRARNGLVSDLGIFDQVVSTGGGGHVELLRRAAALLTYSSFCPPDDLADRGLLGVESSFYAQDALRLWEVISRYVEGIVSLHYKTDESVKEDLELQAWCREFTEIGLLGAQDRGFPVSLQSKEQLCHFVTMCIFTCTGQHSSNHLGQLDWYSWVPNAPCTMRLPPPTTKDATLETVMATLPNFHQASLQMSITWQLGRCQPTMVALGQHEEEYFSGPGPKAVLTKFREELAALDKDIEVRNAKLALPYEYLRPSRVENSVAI
Kind of assay: Kinetics of oxygenation of linoleoylated substrates by leukocyte LOX. Conditions: porcine leukocyte LOX 1.5 units/ml, 100 mM phosphate buffer pH 7.5, 5 mM EDTA; for Vm: 0.03% Tween 20; for Km: substrate 3-100 μM, 0.03% Tween 20, 25° C. It is filed as biochemical. From the text:
(§1) Data were expressed as means ±S.D. of results from at least three independent experiments.

Assay [1] deals with T2, soybean lipoxygenase-1 (LOX-1) (Glycine max, UniProt P08170).
T2 construct: purchased Sigma-Aldrich Corp (St. Louis, Mo., USA) lipoxidase Type I-B
T2 sequence (P08170 1-839): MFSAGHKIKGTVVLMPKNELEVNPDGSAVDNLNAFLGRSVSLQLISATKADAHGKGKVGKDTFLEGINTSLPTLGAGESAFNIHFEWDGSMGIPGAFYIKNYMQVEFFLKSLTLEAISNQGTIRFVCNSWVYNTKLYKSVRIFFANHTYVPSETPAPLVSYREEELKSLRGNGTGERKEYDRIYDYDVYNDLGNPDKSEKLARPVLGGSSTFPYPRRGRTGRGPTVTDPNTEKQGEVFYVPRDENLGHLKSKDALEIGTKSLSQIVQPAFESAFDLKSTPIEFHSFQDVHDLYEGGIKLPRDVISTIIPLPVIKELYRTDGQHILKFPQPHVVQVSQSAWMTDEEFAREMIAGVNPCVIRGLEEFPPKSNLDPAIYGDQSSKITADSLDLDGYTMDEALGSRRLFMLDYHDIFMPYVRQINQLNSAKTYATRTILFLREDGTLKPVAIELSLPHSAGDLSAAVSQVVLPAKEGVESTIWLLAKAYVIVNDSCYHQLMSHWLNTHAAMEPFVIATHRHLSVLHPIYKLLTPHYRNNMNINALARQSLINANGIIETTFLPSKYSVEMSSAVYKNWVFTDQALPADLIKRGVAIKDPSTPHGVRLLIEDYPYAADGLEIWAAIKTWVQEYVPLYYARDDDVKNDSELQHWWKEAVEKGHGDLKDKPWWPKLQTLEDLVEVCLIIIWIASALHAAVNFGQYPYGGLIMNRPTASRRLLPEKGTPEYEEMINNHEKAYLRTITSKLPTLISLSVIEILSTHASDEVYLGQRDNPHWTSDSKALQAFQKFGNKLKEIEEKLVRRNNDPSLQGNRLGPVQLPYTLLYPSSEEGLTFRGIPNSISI
Kind of assay: Kinetics of oxygenation of linoleic acid, soybean lysoPC or linoleoyl-lysoPC by soybean LOX-1 (absorbance at 234 nm). Type of assay: biochemical. As to conditions: for Km: 50 mM borax buffer pH 9.0, 25° C., Lineweaver Burke plot; for Vm: soybean LOX-1, 50 mM borax buffer pH 9.0, 25° C., unit = one micromole conjugated diene per min. On the procedure: Lipoxygenase-1 (LOX-1) activity was monitored at 25° C. by measuring the increase in absorbance at 234 nm due to the formation of hydroperoxide (ε234=25,000 M^−1 cm^−1) as previously reported (Axelrod et al, Methods Enzymol. 71 (1981) 441-451; Egmond et al, Eur. J. Biochem. 61 (1976) 93-100). […] One unit is defined as the amount of LOX-1 that can produce one micromole of conjugated diene per min.
LOX-1 was purified from soy bean lipoxidase preparation (Type I-B) according to the method of Finazzi Agro et al (Finazzi-Agro et al, Biochim. Biophys. Acta 326 (1973) 462-470). Briefly, soybean LOX-1 (100 mg) was dissolved in 0.1 M phosphate buffer (pH 6.8), and applied to DEAE Sephacel (1.5×25 cm). […] Protein amount was determined according to Lowry method (O. H. Lowry, N. J. Rosenbrough, A. L. Farr, R. J. Randall, J. Biol. Chem. 193 (1951) 265-275).
Next, the effect of linoleoyl-lysoPC concentration on LOX-1-catalyzed oxygenation of linoleoyl-lysoPC was examined.

A further assay addresses T3, Reticulocyte LOX (Oryctolagus cuniculus, UniProt P12530).
T3 construct: purchased Biomol Inc. (Plymouth Meeting, Pa., USA)
T3 sequence (P12530 1-663): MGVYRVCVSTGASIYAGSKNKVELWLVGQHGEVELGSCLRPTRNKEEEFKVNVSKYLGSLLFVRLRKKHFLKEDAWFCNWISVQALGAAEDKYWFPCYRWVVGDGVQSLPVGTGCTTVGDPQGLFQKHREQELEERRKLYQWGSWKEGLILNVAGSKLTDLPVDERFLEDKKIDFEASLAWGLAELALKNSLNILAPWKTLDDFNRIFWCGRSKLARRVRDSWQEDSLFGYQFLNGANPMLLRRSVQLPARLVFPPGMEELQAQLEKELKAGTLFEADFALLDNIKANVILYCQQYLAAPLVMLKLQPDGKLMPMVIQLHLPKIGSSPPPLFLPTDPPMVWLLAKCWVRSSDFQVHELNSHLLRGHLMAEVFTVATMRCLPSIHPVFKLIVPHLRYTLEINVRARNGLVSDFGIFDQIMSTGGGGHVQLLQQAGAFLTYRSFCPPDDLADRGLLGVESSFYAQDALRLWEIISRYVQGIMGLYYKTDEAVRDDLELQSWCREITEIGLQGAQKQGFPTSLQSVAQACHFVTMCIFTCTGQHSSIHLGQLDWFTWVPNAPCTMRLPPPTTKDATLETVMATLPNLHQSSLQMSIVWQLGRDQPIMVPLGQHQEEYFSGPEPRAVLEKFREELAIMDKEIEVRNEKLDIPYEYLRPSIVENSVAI
Kind of assay: Kinetics of oxygenation of linoleoylated substrates by reticulocyte LOX. It is filed as biochemical, Rabbit. Conditions: reticulocyte LOX 8.2 units/ml, 50 mM phosphate buffer pH 7.4, 25° C.; for Km: substrate 3-100 μM.
Source text: as §1

Molecules are shown by their SMILES.

One may read the Km as the concentration of substrate that gives half-maximal velocity. Take `CCCCC/C=C\C/C=C\CCCCCCCC(=O)O` [Linoleic acid, linoleic acid]: the Vm on Porcine leukocyte LOX is recorded as 32.7 ± 1.93 units/mg; in assay [1], 114.3 ± 6.0 units/mg; at Reticulocyte LOX it was 545 ± 5 units/mg. The Km is 31.2 ± 4.6 µM at Porcine leukocyte LOX, 12 ± 0.7 µM in assay [1] and 12.1 ± 0.8 µM on Reticulocyte LOX.
As for `CCCCC/C=C\C/C=C\CCCCCCCC(=O)OCC(O)COP(=O)([O-])OCC[N+](C)(C)C` (stereo not shown) [Linoleoyl-lysoPC, 1-linoleoyl Lysophosphatidylcholine], the Vm amounted to 14.42 ± 0.78 units/mg on Porcine leukocyte LOX, 167.5 ± 10.4 units/mg in assay [1], 167.5 units/mg in assay [1] (listed as linoleoyl-lysoPC) and 1622 ± 19 units/mg at Reticulocyte LOX. Also, the Km on Porcine leukocyte LOX was determined as 15.1 ± 1.34 µM; in assay [1], 12.9 µM; on Reticulocyte LOX, 17.5 ± 0.9 µM.
